Assay results reported in article PMC5458078, “Global mapping of CARM1 substrates defines enzyme specificity and substrate recognition” (Nature Communications, 2017).

system: MCF7 cells; test: Quantitative nanoLC-MS/MS (TMT) of ADMA-containing peptides, CARM1 KO vs parental; assay type: cell-based, human; parameters: Fold change KO/WT: scale not given here; conditions: ADMA-containing peptide, CARM1 knockout (KO) vs wild type (WT) MCF7 cells; 6-plex TMT experiment #1; three biological replicates each; sheet "MCF7"

Row | Substance | Fold change KO/WT
1 | VrPVLNLPGPGPALPrALER | -2.391
2 | FEGGHGPSGAAIrFDGPHGQPGGGIrFEGPLLQQGVGMrFEGPHGQSVAGLR | -1.343
3 | GMQHFPPGPGGPMPGPHGGPGGPVGPrLLGPPPPPR | -1.283
4 | APAGGSLGrALMR | -0.2145
5 | ASAPAADPPrYTFAPSVSLNK | -4.884
6 | GIPLDAAAAYYLPrHLAPNPTYPHLYPPYLIrGYPDTAALENR | -1.386
7 | NSCPGPLDSSAFLSSDFLLPEDPKPrLPPPPVPPPLLHYPPPAK | -3.136
8 | STArFTLNPNPTGVQNPHIER | -1.9764
9 | LNASIAGLFPPQINIPLPPrPNLNR | -2.4198
10 | TSGELGPFNNGASYPLQAGQPrLTK | -4.512

same assay, conditions: ADMA-containing peptide, MCF7, CARM1 knockout (KO1-3) vs wild type (WT1-3), TMT 6-plex experiment #1

Row | Substance | Fold change KO/WT
11 | SPFLGSArPrLR | -3.721
12 | TPGQINLAQLrLQHMQQQVYAQK | -4.121
13 | LINFQNHSPKPNGPVLPPHPQQLrYPPNQNIPrQAIKPNPLQMAFLAQQAIK | -2.471
14 | ATSVLPrYGPPCLFK | -3.4878
15 | TDGFAEAIHSPQVAGVPrFR | -1.53
16 | QrGVSHAMGGrGGINR | 0.102
17 | SPFLGSArPrLrFSPYQIPVTIPPSTSLLTTGLASEGSK | -3.915
18 | GAAGAVTQSLSrTPTATTSGIrATLTPTVLAPrLPQPPQNPTNIQNFQLPPGMVLVR | -4.565
19 | DGLTPVPPLAPAPrPPSSGLPAVLNPrPTLTPGrLPTPTLGTArAPMPTPTLVrPLLK | -3.645

same assay, conditions: CARM1 KO vs wild type MCF7 cells, 3 biological replicates each

Row | Substance | Fold change KO/WT
20 | KVPQPCSSATLNrLTVPrYSIPTGDPPPYPEIASQLAQGR | -4.368
21 | LAQNAArIPGIPrHSGPQYSMMQPHLQR | -2.189
22 | SAPFFIPTIPGLVPrYAAPEQNNDPQQSK | -5.228
23 | ErDMQYVQR | 1.019
24 | SSYLESPrGPrFDGPR | -3.147

same assay, conditions: MCF7, CARM1 KO (KO1-KO3) vs wild type (WT1-WT3)

Row | Substance | Fold change KO/WT
25 | MGTPVPRPPQDMGQIGVrTPLGPrVAAPVGPVGPTPTVLPMGAPVPrPrGPPPPPGDENR | -3.294
26 | APrFPSNIIVTNGAAR | -1.771
27 | MPTMPMLDIrPGLIPQAPGPrFPLIQPGIPPQR | -2.649
28 | QLESLWSDSPAPPGPQAGPPSRPPrYSSSSIPEPFGSR | -2.771
29 | MGTPVPRPPQDMGQIGVrTPLGPrVAAPVGPVGPTPTVLPMGAPVPRPR | -3.424
30 | EVVrYLGGSGGAGGR | 0.2966
31 | SGIILrSPrPDFrPrEPFLSrDPFHSLK | -2.553
32 | MGLLSPSGIGGVSPrHALTSPSLGGQGR | -1.616

system: MCF7 CARM1 KO cells; test: Quantitative MS of ADMA-containing peptides in MCF7 CARM1 KO cells expressing CARM1 28-608 or CARM1 140-608, and in CARM1 KO; assay type: cell-based, human; conditions: not given

Row | Substance | CARM1 140-608/WT | KO/WT
33 | SPFLGSArPrLR | -0.6148 | -3.721

same assay, conditions: CARM1 140-608 versus WT, difference of mean log2 values

Row | Substance | CARM1 140-608/WT
34 | KVPQPCSSATLNrLTVPrYSIPTGDPPPYPEIASQLAQGR | -2.332
35 | TPGQINLAQLrLQHMQQQVYAQK | -3.552
36 | LINFQNHSPKPNGPVLPPHPQQLrYPPNQNIPrQAIKPNPLQMAFLAQQAIK | 0.7941
37 | TDGFAEAIHSPQVAGVPrFR | -1.17
38 | LAQNAArIPGIPrHSGPQYSMMQPHLQR | -0.4462
39 | SAPFFIPTIPGLVPrYAAPEQNNDPQQSK | -3.554
40 | ErDMQYVQR | 0.06744
41 | SSYLESPrGPrFDGPR | -2.628

same assay, conditions: CARM1 140-608 versus WT, mean of three replicates (log2)

Row | Substance | CARM1 140-608/WT
42 | FEGGHGPSGAAIrFDGPHGQPGGGIrFEGPLLQQGVGMrFEGPHGQSVAGLR | -0.8121
43 | APrFPSNIIVTNGAAR | -0.8621
44 | GMQHFPPGPGGPMPGPHGGPGGPVGPrLLGPPPPPR | -0.7184
45 | QLESLWSDSPAPPGPQAGPPSRPPrYSSSSIPEPFGSR | -1.865
46 | ASAPAADPPrYTFAPSVSLNK | -4.581
47 | GIPLDAAAAYYLPrHLAPNPTYPHLYPPYLIrGYPDTAALENR | -0.9413
48 | LNASIAGLFPPQINIPLPPrPNLNR | -1.542

same assay, conditions: CARM1 140-608 vs WT, mean of 3 replicates (log2 scale)

Row | Substance | CARM1 140-608/WT
49 | MGTPVPRPPQDMGQIGVrTPLGPrVAAPVGPVGPTPTVLPMGAPVPrPrGPPPPPGDENR | -2.604
50 | MPTMPMLDIrPGLIPQAPGPrFPLIQPGIPPQR | 0.8902
51 | MGTPVPRPPQDMGQIGVrTPLGPrVAAPVGPVGPTPTVLPMGAPVPRPR | -1.595
52 | EVVrYLGGSGGAGGR | -0.0149
53 | SGIILrSPrPDFrPrEPFLSrDPFHSLK | -0.96
54 | MGLLSPSGIGGVSPrHALTSPSLGGQGR | -0.809

same assay, conditions: CARM1 KO versus WT, difference of mean log2 values

Row | Substance | KO/WT
55 | KVPQPCSSATLNrLTVPrYSIPTGDPPPYPEIASQLAQGR | -4.368
56 | TPGQINLAQLrLQHMQQQVYAQK | -5.003
57 | LINFQNHSPKPNGPVLPPHPQQLrYPPNQNIPrQAIKPNPLQMAFLAQQAIK | -2.136
58 | TDGFAEAIHSPQVAGVPrFR | -1.53
59 | LAQNAArIPGIPrHSGPQYSMMQPHLQR | -2.068
60 | SAPFFIPTIPGLVPrYAAPEQNNDPQQSK | -5.228
61 | ErDMQYVQR | 1.019
62 | SSYLESPrGPrFDGPR | -4.092

same assay, conditions: KO versus WT, mean of three replicates (log2)

Row | Substance | KO/WT
63 | FEGGHGPSGAAIrFDGPHGQPGGGIrFEGPLLQQGVGMrFEGPHGQSVAGLR | -1.343
64 | APrFPSNIIVTNGAAR | -1.771
65 | GMQHFPPGPGGPMPGPHGGPGGPVGPrLLGPPPPPR | -1.425
66 | QLESLWSDSPAPPGPQAGPPSRPPrYSSSSIPEPFGSR | -2.771
67 | ASAPAADPPrYTFAPSVSLNK | -6.091
68 | GIPLDAAAAYYLPrHLAPNPTYPHLYPPYLIrGYPDTAALENR | -1.386
69 | LNASIAGLFPPQINIPLPPrPNLNR | -2.454

same assay, conditions: KO vs WT, mean of 3 replicates (log2 scale)

Row | Substance | KO/WT
70 | MGTPVPRPPQDMGQIGVrTPLGPrVAAPVGPVGPTPTVLPMGAPVPrPrGPPPPPGDENR | -3.5517
71 | MPTMPMLDIrPGLIPQAPGPrFPLIQPGIPPQR | -2.649
72 | MGTPVPRPPQDMGQIGVrTPLGPrVAAPVGPVGPTPTVLPMGAPVPRPR | -3.449
73 | EVVrYLGGSGGAGGR | 0.2966
74 | SGIILrSPrPDFrPrEPFLSrDPFHSLK | -2.553
75 | MGLLSPSGIGGVSPrHALTSPSLGGQGR | -1.616

same assay, conditions: difference of log2 means, CARM1 140-608 vs WT

Row | Substance | CARM1 140-608/WT
76 | VrPVLNLPGPGPALPrALER | -2.008
77 | APAGGSLGrALMR | -0.03816
78 | NSCPGPLDSSAFLSSDFLLPEDPKPrLPPPPVPPPLLHYPPPAK | -1.41
79 | STArFTLNPNPTGVQNPHIER | -1.926
80 | TSGELGPFNNGASYPLQAGQPrLTK | -2.866

same assay, conditions: difference of log2 means, KO vs WT

Row | Substance | KO/WT
81 | VrPVLNLPGPGPALPrALER | -2.391
82 | APAGGSLGrALMR | 0.3587
83 | NSCPGPLDSSAFLSSDFLLPEDPKPrLPPPPVPPPLLHYPPPAK | -3.136
84 | STArFTLNPNPTGVQNPHIER | -2.347
85 | TSGELGPFNNGASYPLQAGQPrLTK | -4.63

same assay, conditions: log2 scale ratio, mean of n = 3

Row | Substance | CARM1 140-608/WT | KO/WT
86 | ATSVLPrYGPPCLFK | -1.277 | -3.4878
87 | QrGVSHAMGGrGGINR | 0.2049 | 0.2554
88 | SPFLGSArPrLrFSPYQIPVTIPPSTSLLTTGLASEGSK | -2.053 | -3.915
89 | GAAGAVTQSLSrTPTATTSGIrATLTPTVLAPrLPQPPQNPTNIQNFQLPPGMVLVR | -3.099 | -4.565
90 | DGLTPVPPLAPAPrPPSSGLPAVLNPrPTLTPGrLPTPTLGTArAPMPTPTLVrPLLK | -0.2727 | -4.325
